Source: patent US6541450B1, “Parathyroid hormone analogues for the treatment of osteoporosis” (National Research Council of Canada, priority 1994, dated 2003)
pEC50: −log10 of the molar value. Where two headings read alike, the source gives them in different places. Where a SMILES comes first, the peptide text is derived from it. Bridges are numbered along the chain shown (N, C = ends). Where no end group is shown, it is not given here.

Assays:
[1] = biological target: T1, adenylyl cyclase, ROS 17/2 cells (Rattus norvegicus, UniProt P25961); experiment: Adenylyl cyclase stimulation, [3H]-cyclic AMP production in ROS 17/2 cells; assay type: cell-based; details: ROS cell line
T1 sequence (P25961 27-591): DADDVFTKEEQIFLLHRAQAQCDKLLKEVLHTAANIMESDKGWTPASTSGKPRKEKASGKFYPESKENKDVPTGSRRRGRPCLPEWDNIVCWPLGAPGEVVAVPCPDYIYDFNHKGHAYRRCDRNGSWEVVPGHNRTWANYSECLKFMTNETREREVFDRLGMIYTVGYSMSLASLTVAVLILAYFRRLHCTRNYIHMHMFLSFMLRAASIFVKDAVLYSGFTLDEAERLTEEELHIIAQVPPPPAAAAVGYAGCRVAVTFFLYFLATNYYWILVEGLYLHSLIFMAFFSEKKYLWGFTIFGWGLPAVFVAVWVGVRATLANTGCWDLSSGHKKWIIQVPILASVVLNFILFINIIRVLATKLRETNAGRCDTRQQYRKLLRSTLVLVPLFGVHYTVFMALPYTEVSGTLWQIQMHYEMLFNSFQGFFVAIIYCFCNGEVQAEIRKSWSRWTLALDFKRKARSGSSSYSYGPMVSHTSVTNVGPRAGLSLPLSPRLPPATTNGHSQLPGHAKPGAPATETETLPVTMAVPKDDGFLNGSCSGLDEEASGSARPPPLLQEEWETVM

[2] = tested on: ovariectomized (OVX) Sprague-Dawley rats; experiment: Anabolic activity in ovariectomized rat model, injections from 2nd to 8th week after OVX; assay type: in vivo; details: 0.6 nmole/100 g s.c., 36 injections, weeks 2-8 after OVX
Source text: A full description of the protocol is given in Rixon et al, J. Bone & Mineral Research 9, 1179-1189, 1994 and Whitfield et al Calcif. Tissue Int. 58, 81-87, 1996 incorporated herein by reference. Normal, Sham-OVX (ovariectomized), and OVX Sprague-Dawley rats (3 months-old; 255-260 g) were purchased from
Charles River Laboratories (St. Constant, QC). The rats were randomized into groups of 8 animals which received Purina rat chow and water ad libitum. There were no unscheduled deaths. The animals received 6, once-daily subcutaneous injections/week starting at the end of the second week after OVX, and ending at the end of the 8th week after OVX (i.e., 36 injections). Eight Sham-OVX and 8 OVX controls rats received 36 injections of vehicle (0.15 M NaCl containing 0.001N HCl) while 8 OVX rats received 0.6 nmole of fragment in vehicle/100 g of body weight). At the end of the 8th week after OVX, femurs were removed isolated, cleaned, and cut in half at mid-diaphysis and the proximal half was discarded. After removing the epiphysis, each half-femur was split lengthwise into two parts and the bone marrow was flushed out.
The bone-building potencies of the fragments were assessed from the changes in the mean thicknesses (area/perimeter) of the trabeculae in the distal half-femurs from the variously treated animals. To measure mean trabecular thickness, the two demineralized half-femurs from each rat were dehydrated and embedded in paraffin. Longitudinal, 10-μm sections from the middle plane of each bone were cut and then strained with Sanderson's rapid bone stain (Surgipath Medical Industries, Inc., Winnipeg, MB, Canada). The mean trabecular thickness was measured using a M4 imaging system and bone morphometric software from Imaging Research Inc., (St. Catherines, ON, Canada).
The results are further presented in the form of a bar graph in FIG. 7.

[3] = tested on: ovariectomized (OVX) rats with severely depleted trabecular bone; experiment: Bone restoration in OVX rats with severely depleted trabecular bone, treatment from 9 weeks after OVX; assay type: in vivo, rat; details: 0.6 nmole/100 g once daily for 6 weeks, started 9 weeks after OVX
Source text: Doses were based upon dose-response data on hPTH(1-31)-NH2. […] By the end of the 9th week they had lost about 75% of their femoral trabecular bone mass. […] The fragment could also stimulate trabecular bone growth in much older rates. […] Accordingly, the dosage of 0.6 nmole/100 g of body weight was used in further tests.
In this second example of bone restoration, the abilities of the lactam fragments to restore severely depleted trabecular bone are compared. In this experiment, the 6-week program of once-daily injections of 0.6 nmole of peptide/100 g of body weight of young sexually mature rats was delayed until the end of the 9th week after OVX. At this time, 75% of their trabecular bone had been lost.

[4] = tested on: anesthetized female Sprague-Dawley rats; experiment: Hypotensive effect, tail artery pressure in anaesthetized rats
[5] = biological target: T1, adenylyl cyclase, ROS 17/2 cells; details: previously reported, cited from earlier work

CC[C@H](C)[C@H](NC(=O)[C@H](CCC(=O)O)NC(=O)[C@H](CO)NC(=O)[C@@H](NC(=O)[C@@H](N)CO)C(C)C)C(=O)N[C@@H](CCC(N)=O)C(=O)N[C@@H](CC(C)C)C(=O)N[C@@H](CCSC)C(=O)N[C@@H](Cc1c[nH]cn1)C(=O)N[C@@H](CC(N)=O)C(=O)N[C@@H](CC(C)C)C(=O)NCC(=O)N[C@@H](CCCCN)C(=O)N[C@@H](Cc1c[nH]cn1)C(=O)N[C@@H](CC(C)C)C(=O)N[C@@H](CC(N)=O)C(=O)N[C@@H](CO)C(=O)N[C@@H](CCSC)C(=O)N[C@@H](CCC(=O)O)C(=O)N[C@@H](CCCNC(=N)N)C(=O)N[C@H](C(=O)N[C@H]1CCC(=O)NCCCC[C@@H](C(=O)N[C@@H](CC(C)C)C(=O)N[C@@H](CC(C)C)C(=O)N[C@@H](CCC(N)=O)C(=O)N[C@@H](CC(=O)O)C(=O)N[C@H](C(N)=O)C(C)C)NC(=O)[C@H](CCCNC(=N)N)NC(=O)[C@H](CC(C)C)NC(=O)[C@H](Cc2c[nH]c3ccccc23)NC1=O)C(C)C [peptide 3, [Leu^27]cyclo(Glu^22-Lys^26)-hPTH-(1-31)-NH2] (H-SVSEIQLMHNLGKHLNSMERVEWLRKLLQDV-NH2; lactam 22-26; N-terminus assumed)
increase in activity (AC) of cyclization plus Leu27 versus native sequence 1 [1]: ~6 fold | trabecular thickness (bone-building potency) [2]: especially superior activity compared to the linear analogue | trabecular bone volume ([3]; listed as (Leu^27)cyclo(Glu^22-Lys^26)-hPTH-(1-31)NH2): restored the trabecular bone volume to the values in normal control rats | trabecular bone volume ([3]; listed as (Leu^27)cyclo(Glu^22-Lys^26)hPTH-(1-31)-NH2): most effective of the fragments, restoring the bones to the values in normal control rats | hypotensive action, in words ([4]; subcutaneous injection): enhanced hypotensive effects | time for tail artery pressure to fall to its minimum ([4]; subcutaneous injection): much shorter time

CC[C@H](C)[C@H](NC(=O)[C@H](CCC(=O)O)NC(=O)[C@H](CO)NC(=O)[C@@H](NC(=O)[C@@H](N)CO)C(C)C)C(=O)N[C@@H](CCC(N)=O)C(=O)N[C@@H](CC(C)C)C(=O)N[C@@H](CCSC)C(=O)N[C@@H](Cc1c[nH]cn1)C(=O)N[C@@H](CC(N)=O)C(=O)N[C@@H](CC(C)C)C(=O)NCC(=O)N[C@@H](CCCCN)C(=O)N[C@@H](Cc1c[nH]cn1)C(=O)N[C@@H](CC(C)C)C(=O)N[C@@H](CC(N)=O)C(=O)N[C@@H](CO)C(=O)N[C@@H](CCSC)C(=O)N[C@@H](CCC(=O)O)C(=O)N[C@@H](CCCN=C(N)N)C(=O)N[C@H](C(=O)N[C@@H](CCC(=O)O)C(=O)N[C@@H](Cc1c[nH]c2ccccc12)C(=O)N[C@@H](CC(C)C)C(=O)N[C@@H](CCCN=C(N)N)C(=O)N[C@@H](CCCCN)C(=O)N[C@@H](CCCCN)C(=O)N[C@@H](CC(C)C)C(=O)N[C@@H](CCC(N)=O)C(=O)N[C@@H](CC(=O)O)C(N)=O)C(C)C [peptide 6, hPTH-(1-30)-NH2] (H-SVSEIQLMHNLGKHLNSMERVEWLRKKLQD-NH2)
pEC50 ([1]; read-out: EC50, AC-stimulating activity): 7.70 | pEC50 ([5]; ROS cell line, read-out: EC50, AC-stimulating activity): 7.70 | rate of transport of subcutaneously injected peptide to the vascular system ([4]; subcutaneous, 0.8 nmol/100 g of body weight): significantly (p<0.05) reduced rates of transport

[Leu^27]-hPTH-(1-34)-NH2 (SVSEIQLMHNLGKHLNSMERVEWLRKLLQDVHNF-NH2; not fully specified (bridges); UniProt P01270 32-65, looked up, variant K27L) [reference compound]
AC activity in the ROS cell line, comparison in words [5]: more active in stimulating AC activity in the ROS cell line than hPTH-(1-34)-NH2
